Measured values: patent US20060040884A1, “Antisense oligonucleotides directed to genes regulated by trapoxin-induced HDAC inhibition” (priority 2001, published 2006)
Square brackets hold non-standard residues; d marks the D form. Peptide text beside a SMILES is read from it. ξ: configuration not given here. Aoe(9ξ) = N[C@@H](CCCCCC(=O)C1CO1)C(=O)O; dPip = O=C(O)[C@H]1CCCCN1

Key:
H1299 cells [1] = test: Additional microarray analysis of RhoA, RhoB, RhoC expression in TPX-treated H1299 cells; assay type: cell-based, human; conditions: H1299 cells treated with 30 nm TPX
Experimental: Microarray analysis is performed essentially as described in Welsh, J. B. Cancer Res. 61 5974-8 (2001). Poly (A)+ RNA is prepared from H1299 cells treated with TPX or DMSO for 0, 6, and 24 h. RNA is also prepared from 136 transformed cell lines. Labelled cDNA is prepared and hybridized to HU6800 or U95a oligonucleotide arrays (Affymetrix, Santa Clara, Calif.). The arrays are scanned on an Affymetrix confocal scanner and analyzed with GENECHIP 3.1 software (Affymetrix). T-test of the results is done.

H1299 cells [2] = test: Northern blot analysis of transcripts in TPX-treated H1299 cells; assay type: cell-based, human
Experimental: Northern Blotting. […] RNA is separated by electrophoresis on denaturing agarose gels and transferred to nylon membranes. Membranes are hybridized with random hexanucleotide-primed ^32P-labeled DNA fragments that are prepared from the RhoB gene, using standard protocols.
A subset of genes on Incyte cDNA arrays that were differentially expressed in response to HDAC inhibition by TPX treatment were analyzed using Northern blot analyses to confirm that the level of these transcripts changed in response to HDAC inhibition. Total RNA that was isolated from TPX-treated H1299 cells for 0, 6 and 18 h was hybridized with probes that were prepared from sequences of 8 differentially expressed transcripts, including G9 sialidase, IPP isomerase, p21^waf1, Interferon γ-inducible IP-30 (GILT), Hsp 70, urokinase plasminogen activator receptor, and KIAA0797. Although there were differences in the absolute changes in transcript levels that were determined by Northern analysis versus the arrays, the directional trend in the differential expression in response to TPX was confirmed for all of the genes tested.
[…] RNA is separated by electrophoresis on denaturing agarose gels and transferred to nylon membranes. […]
Total RNA is isolated from H1299 cells treated for 6 h with 30 nM TPX or DMSO using Trizol reagent (Life Technologies). The RNA samples are analyzed by Northern blots using conventional methods. […]

RhoB = test: Western/immunoblot detection of RhoB protein in TPX-treated H1299 cells; assay type: cell-based, human; conditions: 30 nM
Experimental: (§1) Detection of p21^waf1 and RhoB protein induction in response to trapoxin A treatment. […] Whole lysates are prepared in triple detergent lysis buffer (50 mM Tris, pH 8, 150 mM NaCl, 0.02% NaN3, 0.1% SDS, 1% Nonidet P-40, 0.5% sodium deoxycholate, 100 μg/ml phenylmethylsulfonyl fluoride, 1 μg/ml aprotinin) and proteins are separated by SDS-polyacrylamide electrophoresis, electrophoretically transferred to nitrocellulose membranes, and incubated with anti-p21^waf1 (BD Pharmingen, San Jose, Calif.) or anti-RhoB (Santa Cruz Biotechnologies, Santa Cruz Calif.). Immunoreactive proteins are visualized using ECL chemiluminescence system (Amersham Pharmacia Biotech., Piscataway, N.J.).
H1299 non-small lung carcinoma cells are treated with 30 nM trapoxin A or 0.1% dimethysulphoxide or untreated for 0, 8, 24 and 48 h for RhoB. Whole lysates are prepared in triple detergent lysis buffer (50 mM Tris, pH 8, 150 mM NaCl, 0.02% NaN3, 0.1% SDS, 1% Nonidet P-40, 0.5% sodium deoxycholate, 100 μg/ml phenylmethylsulfonyl fluoride, 1 μg/ml aprotinin) and proteins are separated by SDS-polyacrylamide electrophoresis, electrophoretically transferred to nitrocellulose membranes, and incubated with anti-RhoB (Santa Cruz Biotechnologies, Santa Cruz Calif.). Immunoreactive proteins are visualized using ECL chemiluminescence system (Amersham Pharmacia Biotech., Piscataway, N.J.). […]

p21waf1 = test: Immunoblot detection of p21waf1 protein induction in response to trapoxin A; assay type: cell-based, human; conditions: H1299 cells, 48 h
Experimental: as §1

RhoB promoter = RhoB promoter luciferase reporter assay in transfected H1299 cells treated with TPX

In the case of `O=C(CCCCC[C@@H]1NC(=O)[C@H]2CCCCN2C(=O)[C@H](Cc2ccccc2)NC(=O)[C@H](Cc2ccccc2)NC1=O)C1CO1` (stereo partly shown) [TPX, Trapoxin A] (cyclo(FF[dPip][Aoe(9ξ)])), the “Expression of RhoA (additional microarray analysis)” value (H1299 cells [1]) is reported as “unchanged”, the “Expression of RhoC (additional microarray analysis)” value (H1299 cells [1]) is reported as “unchanged” and the “RhoB upregulation (additional microarray analysis)” value (H1299 cells [1]) is reported as “approximately 8 fold”. For the same compound, the “RhoB mRNA level (Northern analysis)” value (H1299 cells [2]; 30 nM, 6 h) was “up-regulated”, the “Directional trend in differential expression vs arrays (Northern; G9 sialidase, IPP isomerase, p21waf1, IP-30, Hsp 70, UpaR, KIAA0797)” value (H1299 cells [2]; TPX 0, 6 and 18 h) was “confirmed” and the “RhoB protein level (Western analysis)” value (RhoB) was “up-regulated”. The “TPX-induced p21waf1 expression (Western blotting)” value (p21waf1) was “decreased”, the “Induction of luciferase activity driven by the RhoB promoter” value (RhoB promoter; 30 nM TPX 24 h, normalized to DMSO) was “about 10 fold” and the “Effect of insertion of three nucleotides (AAA) between CCAAT and TATA boxes on TPX induction” value (RhoB promoter; 30 nM TPX vs 0.1% DMSO, 24 h) was “no effect”. The “Induction of RhoB promoter 5′ deletion constructs (luciferase activity)” value (RhoB promoter; all constructs generated) was “induced by TPX to a similar extent”.
